From patent publication US8673289B2, “Attenuated uracil auxotroph of an apicomplexan and use thereof” (priority 2007, dated 2014)

How the values were obtained:
Assay type in all cases: cell-based, Toxoplasma gondii
cps1 and cps2 mutants = experiment: pyrimidine dependence of cps1 and cps2 replication and plaque formation; conditions: relatively low (thymine, thymidine: moderate) concentrations in medium
From the text: However, all of these mutants are somewhat “leaky” in that there was not an absolute growth (replication) dependence on uracil addition to the growth medium for replication. Each of these mutants grows at a moderate (½ of normal) growth rate for the first 2 days following infection of a host cell producing vacuoles that contained 16 to 32 parasites by 3 days post infection. In contrast, RH parasites are lysed out of their primary vacuoles at this time (3 days, >64 parasites). However, the cps mutants slow after 3 days and many parasites never (about ⅓) break out of their primary vacuole. If the primary vacuole breaks, a few parasites can be detected at the site of infection but the infection site always involves a small zone of infection that never forms a visible plaque in a standard 7 day plaque assay. To quantitate growth of these mutants, HFF flasks were inoculated with […] or cps2 parasites (about a multiplicity of infection (MOI) of 1 parasite per 20 HFF cells). After 2 hours of attachment and invasion (all of these mutants have normal attachment and invasion phenotypes as scored by counting percent entered parasites into host cells as a function of time post-inoculation), different concentrations of different pyrimidine compound was added to parallel infected HFF flasks. As a function of time post pyrimidine addition (t=0 hour) the number of parasites per vacuole was scored for 50 vacuoles as described by Fox et al. ((1999) supra). The number of parasite doublings was calculated based on 1 parasite entering each primary vacuole. Thus, 1 doubling=2 parasites per vacuole, 3 doublings=8 parasites per vacuole, and 5 doublings=32 parasites per vacuole. The pyrimidine dependence of cps1 and cps2 replication (doublings of parasites in the vacuole) was plotted graphically. […] The response to thymine and thymidine was additionally informative about the cause of the growth defect in cps1 and cps2. […] This is believed to be caused by the putative defect in the cps1 and cps2 mutants which is a reduced “pool” size of UMP. If UMP pools (ultimately used for RNA and DNA synthesis) are lowered it follows that a resulting decrease in TMP pools is expected since UMP is the precursor of TMP in T. gondii and all other apicomplexan parasites which normally lack TK activity. However, since cps1 and cps2 now express a TK activity carried into the parasite by the p53KOX3-1R plasmid, exemplified by sensitivity of these mutants to ganciclovir (specific to HSV TK), feeding parasites either thymine or thymidine is expected to increase TMP pools. Thus, it appears that moderate levels of thymine or thymidine partially rescue growth of cps1 and cps2 by restoring TMP pools. […] Since the parasite has no mechanism to convert TMP back to UMP there is still a defect in the UMP pool in cps1 and cps2 even with added thymine or thymidine and rescue is never complete. The ability of cps1 and cps2 mutants to form plaques on HFF monolayers in the standard 7 day assay paralleled the pyrimidine dependence of parasite replication in vacuoles.
The cps1 and cps2 mutants were inoculated intraperitoneally (i.p.) into balb/c mice to measure parasite virulence compared to virulent RH parasites. Both mutant cps1 and cps2 had equal virulence as RH parasites in balb/c mice (Jackson Labs), killing all mice within 10 days of i.p. inoculation (group size was four mice per parasite strain). Only 100 parasites (˜50 PFU) of each parasite strain was needed to kill all mice in each group. This pattern of virulence can be understood by re-examining the pyrimidine dependence of cps1 and cps2 growth. Uridine is believed to be the pyrimidine responsible for virulence of cps1 and cps2 in mice. Only 5 μM uridine completely rescues normal plaque size of cps1 and cps2 in vitro. Plasma concentrations of uridine in mice are approximately 5 to 10 μM.

cps1-1 and cps2-1 = experiment: pyrimidine rescue of cps1-1 and cps2-1 replication and plaque formation
Protocol: No pyrimidine compound at less than 25 μM could rescue plaque formation of cps1-1 or cps2-1. […] Uridine was quite poor at rescue of plaque formation in cps1-1 and cps2-1.
A more detailed growth response to pyrimidine, measured as parasite replications (doublings) was performed for cps1-1 and cps2-1 and compared to the results previously obtained for […]. […] Uridine rescue was poor, with a slow restoration of growth at very high amounts, >400 μM. Deoxyuridine rescue was significant, but again, full growth rate was not restored at any concentration of deoxyuridine. Rescue with uracil was robust, but only in a limited range of concentration. Full restoration of growth rate in cps1-1 and cps2-1 was possible only with uracil added between 200 and 400 μM. […] This phenotype can only be observed in T. gondii pyrimidine auxotroph mutants, not in wild-type parasites with intact de novo pyrimidine synthesis pathways.
The pyrimidine growth dependence of mutant cps1-1 on the pyrimidine salvage pathway was further documented in thymidine interference experiments. Mutant cps1-1 plaques well in 250 μM uracil or deoxyuridine, but not in 1000 μM thymidine. Since thymidine at 1000 μM is known to inhibit approximately 90% of the parasite nucleoside phosphorylase activity specific for cleavage of deoxyuridine (Iltzsch, (1993) J. Euk. Micro. 40:24-28), growth of cps1-1 was tested in combinations of 1000 μM thymidine and 250 μM uracil or 250 μM deoxyuridine. All pyrimidine salvage in T. gondii must pass through uracil and UPRT conversion of uracil to UMP. In contrast, thymidine has no effect on UPRT activity. Thus, if growth of cps1-1 were dependent on deoxyuridine supplementation then replication in this condition may be inhibited by co-supplementing with 1000 μM thymidine. […] Thus, when cps1-1 is grown in deoxyuridine the parasite strictly requires nucleoside phosphorylase activity to cleave deoxyuridine for growth. […] Thus, cps1-1 and cps2-1 rely strictly on pyrimidine salvage enzymes for growth and further, the HFF host cell in vitro cannot supply sufficient pyrimidines for growth of cps1-1 or cps2-1. […] Such potential inhibitors can only be identified using a pyrimidine auxotroph such as provided in the instant invention.
To assess reversion, 10^6 to 10^7 cps1-1 or cps2-1 parasites were periodically inoculated into HFF flasks supplemented with 5 μM uridine. This concentration of uridine is sufficient to rescue the parent strains (cps1 and cps2) of cps1-1 and cps2-1.

tachyzoites = experiment: uracil incorporation assay; conditions: [3H]uracil 25 μg/ml
Protocol: Experiments to evaluate the feasibility of constructing pyrimidine auxotrophs of T. gondii were performed. Pyrimidine auxotrophy relies on the ability to feed mutant parasites a pyrimidine nucleobase, such as uracil, in culture medium in amounts that will restore parasite growth to near normal levels. Experiments were therefore conducted to measure whether uracil incorporation into parasites in culture could account for normal replication and normal growth rates. In these experiments, biochemically saturating amounts of [^3H]uracil (25 μg/ml) were added to the growth medium and the quantitative incorporation of label into parasite RNA and DNA was determined over a four hour interval. It was calculated using known values that about 82% of the pyrimidines incorporated into parasite nucleic acids were derived from the uracil which was added to the growth medium as a supplement.
The uracil incorporation assay, results and calculation of uracil incorporation were carried out as follows. Parasites (2.09×10^7) were labeled for 4 hours in medium containing [^3H]uracil at 25 μg per ml or 0.223 μmole per ml, wherein the specific activity of uracil was 34.3 CPM per pmole (CPM=counts per minute). […] Based upon these parameters, it was concluded that 82% of incorporated pyrimidines originate from uracil when it is added to medium.

RH parasite = experiment: plaque formation of RH in very high uracil; conditions: 2000 or 4000 μM uracil
wild-type T. gondii = experiment: labeling of parasites with [3H]pyrimidines (pyrimidine salvage); conditions: parasites grown in host cells
Protocol: (§1) Initial experiments primarily involved an enzymatic analysis of drug resistant mutants and the incorporation of various pyrimidine analogs into T. gondii RNA and DNA as an indication of pyrimidine salvage when parasites were grown in either normal host or mutant host cells. All biochemical communications between the parasite and host cells cross the vacuolar membrane which is now known to contain “pores” that permit the passage of nucleobases ranging in molecular mass from 112 daltons up to 244 daltons. The size of the pores is estimated to be approximately 1500 daltons. A T. gondii mutant resistant to 5-fluorodeoxyuridine (FUDR-1) had lost uracil phosphoribosyltransferase (UPRT), an enzyme which is absent in normal host cells (Pfefferkorn (1978) Expt. Parasitol. 44:26-35). […] FUDR-1 mutant parasites were not labeled with [^3H]deoxyuridine. […] FUDR-1 mutant parasites were not labeled with [^3H]uridine. […] FUDR-1 (UPRT knock-out) parasites were not labeled with [^3H]uracil.
Similarly, since uracil only labels the parasite, due to the parasite UPRT, which is absent in the host, the pyrimidine pools of the parasite are also unavailable to the host. Thus, there is no detectable pyrimidine traffic detected between the parasite and host.

FUDR-1 mutant parasites = experiment: labeling of FUDR-1 (UPRT knock-out) parasites with [3H]pyrimidines
Protocol: as §1

With `O=c1cc[nH]c(=O)[nH]1` [uracil] as the compound, how does the “rescue of growth rate / replication of cps1 and cps2” value (cps1 and cps2 mutants) read?
Its value is “completely rescued”.

And the “plaque formation of cps1-1” value (cps1-1 and cps2-1; 250 μM supplement)?
Its value is “plaques well”.

And the “rescue of replication (doublings) of cps1-1 and cps2-1” value (cps1-1 and cps2-1; 36-hour replication assay, HFF)?
The value was “robust”.

And the “plaque formation of cps1-1, cps2-1, cps1 and cps2” value (cps1-1 and cps2-1; 2000 or 4000 μM uracil)?
The value was “do not even form plaques”.

What about the “uracil concentration above which growth rate is reduced significantly” value (cps1-1 and cps2-1; cps1-1, cps2-1) of the same compound?
Its value is greater than 500 µM.

What about the “rescue of plaque formation of cps1-1 and cps2-1” value (cps1-1 and cps2-1; plaque assay) of the same compound?
The value was “significant growth rescue”.

And the “rescue of plaque formation of cps1-1 and cps2-1” value (cps1-1 and cps2-1; pyrimidine concentrations up to 200 μM)?
The value was “completely rescued”.

And the actual incorporation (tachyzoites)?
The actual incorporation was 0.00032 pmoles pyrimidine per tachyzoite per 4 hours.

And the “effect on RH parasite plaques” value (RH parasite)?
Its value is “no effect”.

What about the “incorporation of [3H]-labeled pyrimidine into wild-type parasites” value (wild-type T. gondii) of the same compound?
The value was “incorporated into wild-type T. gondii”.

What about the “labeling of FUDR-1 mutant parasites with [3H]pyrimidine” value (FUDR-1 mutant parasites) of the same compound?
Its value is “not labeled”.
